# According to US8143313B2, “Compositions and methods for preventing or treating an inflammatory response” (McGill University, priority 2004, dated 2012):
# How the values were obtained:
# [1] = test system: CFTE29o-; test: Apoptosis, in situ end labeling of DNA strand breaks, CFTR-deficient cells; assay type: cell-based, human; settings: for apoptosis by fluorescein staining: no TNF-α
# Method: (§1) Adherent epithelial cell lines, CFTE29o- and 9HTEo-, grown on coated coverslips for 24 hours, were treated with fenretinide at the same concentrations used to determine IL-8 release as indicated supra. After a 24-hour incubation with fenretinide, cells were stimulated with TNF-α (experimental group) or with Cisplatin at […] (as a positive control) for an additional 24 hours. Cells were fixed in 4% paraformaldehyde in PBS at pH 7.4 for one hour at room temperature. Cells were subsequently washed and permeabilized using 0.1% TRITON™ X-100 in 0.1% citrate buffer for 2 minutes on ice. After being washed, the coverslips were individually removed from 24-well plates and cells were incubated for one hour at 37° C. with terminal deoxynucleotidyl transferase (Tdt) enzyme conjugated to fluorescein (Roche Diagnostics, Indianapolis, Ind.) for visualization. A negative slide was produced by incubating a slide of both cell lines with buffer minus the Tdt enzyme. The Tdt enzyme binds to the free hydroxyl end of DNA strand breaks. Subsequently, cells were washed twice with PBS and coverslips were placed on slides in the presence of the anti-fade medium VECTASHIELD® to facilitate fluorescence preservation. Slides were individually labeled with numbers to keep the investigator blinded to the outcome until after the slides were reviewed. Four randomly selected fields were visualized at 400× (total magnification) using a fluorescence microscopy and cells that appeared brightly flourescent were counted. Pictures were taken to estimate the number of positive to negative cells per field.
# [2] = test system: CFTR-deficient cells (CFTE29o-); test: IL-8 release (ELISA) by CFTR-deficient human tracheal epithelial cells; assay type: cell-based
# Method: (§2) General Procedures. Normal (9HTEo-) and CFTR-deficient human tracheal epithelial cells (CFTE29o- ΔF508 CFTR) were used in the analysis disclosed herein and grown in pre-coated T-75 flasks in a medium containing 10% fetal bovine serum (FBS). Cells were re-fed every 2-3 days until they reached confluency. Adherent monolayers were released from the plastic surface after treatment with trypsin-EDTA (Sigma-Aldrich Co., St. Louis, Mo.) and split into 24-well plates for about 24 hours before receiving treatments.
# (§3) Treatment with Fenretinide and TNF-α. Normal and CFTR-deficient cells were treated with fenretinide (Wang, et al. (2001) Cancer Res. 61:5102-5105; Erdreich-Epstein, et al. (2002) supra) at doses known to effectively increase cellular ceramide content in cell culture. Normal (9HTEo-; 0.4×10^6 cells/well) and CFTR-deficient human epithelial cells (CFTE29o- ΔF508 CFTR; 0.6×10^6 cells/well) were incubated for 24 hours at 37° C. in 5% CO2 with 1.25 μM, 2.5 μM or 5 μM fenretinide in Eagle's minimum essential medium (MEM) containing 10% fetal bovine serum (FBS). Subsequently, the medium was replaced with fresh MEM 2% FBS containing the same initial concentrations of fenretinide and cells were grown for an additional 24 hours to characterize the impact of fenretinide on IL-8 release in a non-inflammatory condition. To characterize the inflammatory condition, cells were treated with MEM 2% FBS containing 1.25 μM, 2.5 μM or 5 μM fenretinide and concurrently stimulated with human recombinant TNF-α (10 ng/mL) for another 24 hours. All experiments included unstimulated negative control wells.
# IL-8 Release and Cell Viability Assays. Supernatants were collected from treated cells and the amount of IL-8 released into the medium was determined using an enzyme-linked immunosorbent assay (ELISA) kit (OPTEIA™ Human IL-8 Set; BD PHARMINGEN™, San Diego, Calif.). Briefly, 96-well plates were coated overnight with capture antibody, washed with PBS, 0.05% TWEEN®-20 and coated with PBS, 10% heat-inactivated FBS. Known concentrations of IL-8 (standard) and supernatants containing released IL-8 were added as aliquots into appropriate wells, incubated for 2 hours and subsequently decanted from the wells. Enzyme-conjugated anti-IL-8 antibody was added and incubated for 1 hour. After washing the plate, a substrate for the enzyme was added and the plate incubated for 30 minutes. The reaction was stopped using a 2NH2SO4 solution and the absorbance was read at 450 nm.
# [3] = test system: normal cells (9HTEo-); test: IL-8 release (ELISA) by normal human tracheal epithelial cells; assay type: cell-based
# Method: as §2, §3
# IL-8 Release and Cell Viability Assays. Supernatants were collected from treated cells and the amount of IL-8 released into the medium was determined using an enzyme-linked immunosorbent assay (ELISA) kit (OPTEIA™ Human IL-8 Set; BD PHARMINGEN™, San Diego, Calif.). Briefly, 96-well plates were coated overnight with capture antibody, washed with PBS, 0.05% TWEEN®-20 and coated with PBS, 10% heat-inactivated FBS. […] The reaction was stopped using a 2NH2SO4 solution and the absorbance was read at 450 nm.
# [4] = test system: CFTR-deficient human epithelial cells (CFTE29o-); test: Proliferation (viable cell counts) of CFTR-deficient human epithelial cells; assay type: cell-based
# Method: CFTE29o- (0.6×10^6/well in a 24-well plate) cells were incubated with 1.25 μM, 2.5 μM or 5 μM of fenretinide for 24 hours in a MEM containing 10% FBS. Vehicle control wells contained ethanol (EtOH) at concentrations equivalent to those used with fenretinide treatments.
# CFTE29o- cells were incubated with 1.25 μM, 2.5 μM or 5 μM of fenretinide for 24 hours in a MEM containing 10% FBS. After 24 hours, the medium was replaced by MEM 2% FBS containing the same concentrations of fenretinide and stimulated with TNF-α for another 24 hours. Viable cell counts were determined.
# as §3
# (§4) Cell viability was assessed using a 3-(4,5-dimethylthiazol-2-yl)-2,5-diphenyltetrazolium bromide (MTT) assay according to standard methods (Mosmann, T. (1983) J. Immunol. Methods. 65:55-63). […] Cells were incubated for 4 hours at 37° C., supernatant was aspirated, HCl-isopropanol solution (0.04 N HCl in isopropanol) was added, and after 5 minutes the optical densities were measured at 540 nm. […]
# [5] = test system: normal human epithelial cells (9HTEo-); test: Proliferation (viable cell counts) of normal human epithelial cells; assay type: cell-based; settings: pro-inflammatory and non-inflammatory state, in particular 2.5 μM and higher
# Method: 9HTEo- (0.4×10^6/well in a 24-well plate) cells were incubated with 1.25 μM, 2.5 μM or 5 μM of fenretinide for 24 hours in a MEM containing 10% FBS. Vehicle control wells contained ethanol (EtOH) at concentrations equivalent to those used with fenretinide treatments.
# 9HTEo- cells were incubated with 1.25 μM, 2.5 μM or 5 μM of fenretinide for 24 hours in a MEM containing 10% FBS. After 24 hours, the medium was replaced by MEM 2% FBS containing the same concentrations of fenretinide and stimulated with TNF-α for another 24 hours.
# Treatment with Fenretinide and TNF-α. Normal and CFTR-deficient cells were treated with fenretinide (Wang, et al. (2001) Cancer Res. 61:5102-5105; Erdreich-Epstein, et al. (2002) supra) at doses known to effectively increase cellular ceramide content in cell culture. […]
# as §4
# [6] = test system: 9HTEo-; test: Apoptosis, in situ end labeling of DNA strand breaks, non-cystic fibrosis cells; assay type: cell-based, human; settings: for apoptosis by fluorescein staining: no TNF-α
# Method: as §1
# [7] = test system: Pseudomonas aeruginosa; test: Pulmonary infection of CFTR knockout and wild-type mice with P. aeruginosa; assay type: in vivo, mouse
# From the text: Homogenous C57BL/6 Cftr^unc knockout mice generated by insertion of a stop codon in exon 10 of Cftr gene are well-known in the art (Snouwaert, et al. (1992) Science 257:1083-8; Gosselin, et al. (1998) Am. J. Respir. Crit. Care Med. 157:1253-62). Mice used in these studies represent offsprings from B6-Cftr^unc (+/−) mice backcrossed to C57BL/6 mice for 10 to 12 generations.
# Housing Conditions. B6-Cftr (−/−) and B6-Cftr (+/+) mice were housed on corn cob bedding (Anderson, Maumee, Ohio) and fed sterile PEPTAMEN® (Clintec Nutrition, Deerfield, Ill.), a low-residue liquid diet which was previously shown to prevent intestinal obstruction in Cftr^unc knockout mice (Eckman, et al. (1995) Am. J. Physiol. 269:L625-L630). A standard diet was used (Gosselin, et al. (1998) supra), wherein the caloric content of the diet was 420 KJ/100 mL and an adult mouse consumes approximately 15 mL/day. In order to maintain the sterility of the diet, it was changed daily. For one month prior to pulmonary infection with P. aeruginosa, mice were provided fenretinide (prepared in PEPTAMEN®) in the drinking water at 5 mg/kg body weight. The dose was set for each individual mouse based on its weight and adjusted every week (e.g., 147 μg/mouse/day for 30 gram mouse).
# Infection of Mice. […] The number of viable P. aeruginosa entrapped in agar beads was determined by plating serial dilutions of the homogenized bead suspension on TSA plates. […]
# Bronchoalveolar Lavages (BAL). […] Alveolar cells were centrifuged, resuspended in 1 mL PBS, stained with Turk's solution and counted. The proportions of macrophages, lymphocytes, and polymorphonuclear leukocytes (PMN) were calculated after counting 200 alveolar cells on cytospin preparations stained with DIFF-QUICK® (American Scientific Products, McGaw Park, Ill.).
# Measurement of Bacterial Burden. […] Serial 10-fold dilutions of homogenates were plated on petri dishes containing TSA and the number of colony-forming units (CFU) per organs was counted after overnight incubation at 37° C. […]
# [8] = oral, once a day, 28-day courses, cited from earlier work
# [9] = CFTR-deficient and wild-type mice, 5 mg/kg for one month before challenge, 3 days post-infection
compound,measurement,setting,value
N.N.[Cl][Pt][Cl] [cisplatin],apoptotic effect of positive control,"[1]; CFTR-deficient epithelial cells, as opposed to non-cystic fibrosis cells",resistant to the apoptotic effects
"CC1=C(/C=C/C(C)=C/C=C/C(C)=C/C(=O)Nc2ccc(O)cc2)C(C)(C)CCC1 [fenretinide, all-trans-N-(4-hydroxyphenyl)retinamide]","IL-8 level as % of the TNF-α-stimulated value, dose-dependent reduction","[2]; CFTE29o-, TNF-α 10 ng/mL, fenretinide 1.25-5 μM, greatest reduction",70%
same,threshold level for significance of IL-8 reduction,"[2]; CFTE29o-, TNF-α-stimulated",2.5 µM
same,activity at 1.25 µM,"[2]; Homo sapiens, Epithelial cell, CFTE29o-, TNF-α 10 ng/mL, 1.25 μM fenretinide, not significantly different from control, read-out: IL-8 level as % of control (TNF-α only)",86%
same,increase of IL-8 levels in the absence of TNF-α stimulation,"[2]; cystic fibrosis cells, no TNF-α, fenretinide 1.25-5 μM, dose-dependent",2- to 8 fold
same,IL-8 maximum level as % of that secreted by TNF-α-stimulated cells,"[3]; 9HTEo-, TNF-α 10 ng/mL, fenretinide 1.25-5 μM",139%
same,threshold level of IL-8 enhancement,"[3]; 9HTEo-, TNF-α-stimulated",2.5 µM
same,enhancement in basal IL-8 release,"[3]; non-cystic fibrosis cells, no TNF-α, all treatment doses",greater than 14 fold
same,cell numbers,"[4]; CFTR-deficient cells, non-inflammatory condition, 2.5 μM",decrease in CFTR-deficient epithelial cell numbers
same,cell proliferation,"[4]; CFTR-deficient cells, pro-inflammatory and non-inflammatory state, in particular 2.5 μM and higher",significant decrease in cell proliferation
same,cell numbers,"[4]; cystic fibrosis cells, 1.25 μM",did not show a decrease in cell numbers
same,cell proliferation,[5],significant decrease in cell proliferation
same,apoptosis in the presence of TNF-α,"[1]; CFTR-deficient cells, TNF-α, 1.25 and 2.5 μM",no enhancement of apoptosis
same,apoptosis by fluorescein staining,"[1]; CFTR-deficient cells, 1.25 μM","no morphology of apoptosis, weak fluorescence was observed"
same,apoptosis by fluorescein staining,"[1]; CFTR-deficient cells, 2.5 μM",early stage apoptosis
same,apoptosis in the presence of TNF-α,"[6]; TNF-α, both doses (1.25 and 2.5 μM)",significant apoptosis
same,apoptosis by fluorescein staining,[6]; 1.25 μM,weaker fluorescence and an earlier stage of apoptosis
same,apoptosis by fluorescein staining,[6]; 2.5 μM,strong fluorescence and classic apoptotic morphology
same,bacterial burden in lungs,[7]; [9],reduced
same,recruitment of inflammatory cells to the lungs,[7]; [9],decrease in the recruitment of inflammatory cells
same,reduction in P. aeruginosa cell numbers as compared to controls,[7]; cystic fibrosis mice pretreated with fenretinide,approximately 40%
same,subjects with side effects,[8]; subjects 2-21 years with neuroblastoma,15 of the 45
same,time to reversal of side effects after discontinuation of treatment,[8],≤ 7 days
